{"source": "paper PMC9043997", "about": "“LEAP2 reduces postprandial glucose excursions and ad libitum food intake in healthy men” (Cell Reports Medicine, 2022)", "key": {"healthy men": {"system": "healthy men", "test": "Plasma glucagon during LEAP2 infusion, crossover study", "assay_type": "in vivo, human", "conditions": "mean ± SEM", "excerpt": "The infusion was terminated when participants had finished eating.\nFor analysis of plasma glucose, blood was distributed in fluoride heparin-coated tubes, centrifuged immediately for 30 s (12,100 g, room temperature) and measured bedside by the glucose oxidase method (YSI 2900 Biochemistry Analyzer; YSI Incorporated, Yellow Springs, Ohio, USA). For analysis of LEAP2, blood was collected in chilled K3EDTA tubes each containing 250 KIU of aprotinin. For analysis of acyl ghrelin, blood was collected in chilled K2EDTA tubes added 20 μL pefabloc (100 mg/mL; Merck Millipore, Burlington, Massachusetts, USA). Subsequently, pefabloc-treated plasma was acidified with HCl (12.5 μL 2M HCl per 500 μL plasma; Merck Millipore, Burlington, Massachusetts, USA). For analysis of glucagon, blood was collected in K2EDTA tubes. For analysis of GH, insulin, C-peptide, free fatty acids, glycerol, triglycerides and acetaminophen (paracetamol), blood was collected in tubes with lithium and heparin. All tubes were immediately cooled on ice, centrifuged for 15 min (2,000 g, 4°C) and stored at −80°C until analysis. LEAP2 concentrations were determined by an in-house radioimmunoassay directed against the N-terminal part of LEAP2. LEAP-2 was used for standards, and the tracer was a peptide composed of the 12 N-terminal amino acids of LEAP2, with a ^125I-labelled tyrosine added to the C-terminal end. The precision and accuracy of the assay were evaluated based on European Medicines Agency's guidelines for bioanalytical assay validation. […] Due to supply chain disruptions from the COVID-19 pandemic, acyl ghrelin was only measured in plasma samples at timepoints 0, 60, 105, 165 and 255 min. […] Plasma GH was measured by Immunodiagnostic system-iSYS assay (IS-3700; IDS Limited, Boldon, UK). The assay is based on chemiluminesence technology and was performed according to the manufacturer’|'s instructions. […] For analysis of glucagon, plasma was extracted in a final concentration of 70% ethanol. Glucagon was measured using a C-terminal directed antiserum (code number 4305) measuring glucagon of pancreatic origin as previously described.[40] […] Plasma insulin and C-peptide were measured using a two-sided electrochemiluminescence immunoassay (Atellica IM Analyzer; Siemens Healthcare, Ballerup, Denmark). Plasma triglycerides and acetaminophen were analyzed by spectrophotometric methods following enzymatic hydrolysis and oxidation (Siemens Atellica CH 930; Siemens Healthcare, Ballerup, Denmark). Plasma concentrations of free fatty acids and glycerol were determined by enzymatic methods modified to run on a COBAS 6000 automatic analyzer (Roche, Rødovre, Denmark) using a NEFA-HR assay (Wako Chemicals, Neuss, Germany) and glycerol assay (Randox Laboratories, Crumlin, UK), respectively.\nUnless otherwise stated, results are presented as mean ± SEM. Baseline values were calculated as a mean of timepoints −35, −10 and 0 min or, when only available −10 and 0 min. Baseline values for the postprandial period were calculated as a mean of timepoint 60 min. Calculations of AUC were based on the trapezoidal rule. AUC values are reported for the period 0 to 255 min. To assess the fasting and postprandial periods separately, AUC values are reported for the periods 0 to 60 min and 60 to 255 min, respectively. Student’s paired t test was used to test for differences in baseline, peak, time to peak, AUC and mean values and ad libitum food intake in men."}, "[1]": {"test": "Pharmacokinetic parameters of exogenous LEAP2 in healthy men (one-compartment model)", "assay_type": "in vivo, human", "procedure": "Eight healthy men, recruited among participants in the placebo-controlled, crossover study, were included in an additional clinical study investigating the kinetic parameters of exogenous LEAP2. Each participant underwent a single experimental day with intravenous infusion of LEAP2 (10 min at a rate of ∼101 pmol/kg/min followed by 110 min at ∼25 pmol/kg/min) (see Figure S1B for an overview of the clinical study design). […] Fasting schedule for participants and all instructions from 48 h prior to the experimental day were similar to the placebo-controlled, crossover study. […] LEAP2 infusion was started at timepoint 0 min and discontinued after 120 min. Blood samples were drawn every 15 min from timepoint −30 to 270 min and, additionally, at timepoints 118, 122, 124, 127 and 130 min. Plasma glucose was measured bedside every 15 min from timepoint −30 to 180 min and every 30 min from timepoint 180 to 270 min with a mean concentration of 4.85 ± 0.02 mmol/L. For analytical procedures related to plasma glucose and LEAP2 concentrations, please see the section “Human plasma analyses”. Every 30 min from time −30 to 270 min, participants rated appetite-related sensations on 100 mm VAS[34] with a score (median (interquartile range)) for hunger of 72 (59–79) mm, prospective food consumption 73 (65–82) mm, satiety 22 (14–33) mm, fullness 21 (12–31) mm, comfort 78 (72–90) mm, thirst 78 (71–89) mm and nausea 3.0 (0–9.0).\nWe constructed and applied a pharmacokinetic model to the data using the software Monolix (Monolix version 2019R1; Lixoft SAS, Antony, France). The parameters were estimated using the Stochastic Approximation EM algorithm.[22] The one-compartment model assumed input from both endogenous LEAP2 secretion and the exogenous LEAP2 infusion assuming that LEAP2 kinetics followed a single-exponential elimination. We assumed that the endogenous production of LEAP2 was constant i.e. not suppressed during infusion of exogenous LEAP2. This model probably represents a simplification of the actual physiological LEAP2 kinetics, but the data fitted well to model predictions."}, "GHSR-null mice": {"system": "GHSR-null mice", "test": "Plasma glucose and food intake after subcutaneous LEAP2 in GHSR-null mice", "assay_type": "in vivo, mouse", "conditions": "female GHSR-null mice n = 8, LEAP2 3 μmol/kg subcutaneous", "procedure": "Food intake and blood glucose measurements were measured in female GHSR-null mice (n = 8) and wild-type littermates (n = 10) (14–24 weeks of age). Mice were double-housed with matching genotype and age. All mice were fasted for four hours and randomized by mean body weight per cage and allocated into either vehicle (saline) or LEAP2 administration on the first day of the study. LEAP2 or vehicle was administered subcutaneously just before start of dark phase (6 PM). By start of dark phase, mice had ad libitum access to water and a normal chow diet. Cumulative food intake was measured one, two and four hours after administration and calculated as the average food intake per cage per g body weight of each mouse, respectively. Blood glucose was measured in blood from a tail puncture at baseline and one, two and four hours after administration by use of a glucometer (Contour ™xt meter; Ascensia Diabetes Care, Basel, Switzerland). One week later, mice underwent the same procedure, but with the opposite treatment. The concentration of the LEAP2 dose was 3 μmol/kg."}, "[2]": {"conditions": "healthy men n = 20, iv LEAP2 ~25 pmol/kg/min, liquid mixed meal at 65 min"}}, "note": "Where a SMILES comes first, the peptide text is derived from it. Bridges are numbered along the chain shown (N, C = ends).", "data": [{"compound": "CC[C@H](C)[C@@H]1NC(=O)[C@@H]2CSSC[C@@H](C(=O)N[C@@H](CO)C(=O)N[C@@H](CC(C)C)C(=O)N[C@@H](CO)C(=O)N[C@H](C(=O)N[C@@H](C)C(=O)N[C@@H](CCC(N)=O)C(=O)N[C@@H](CCC(=O)O)C(=O)O)C(C)C)NC(=O)[C@H](CCCNC(=N)N)NC(=O)[C@H](CCCNC(=N)N)NC(=O)[C@H](CCCCN)NC(=O)[C@H](CCCNC(=N)N)NC(=O)[C@H](CSSC[C@H](NC(=O)[C@H](CO)NC(=O)[C@H](C)NC(=O)CNC(=O)[C@@H](NC(=O)[C@@H]3CCCN3C(=O)[C@H](CCCNC(=N)N)NC(=O)[C@H](CC(C)C)NC(=O)[C@H](CO)NC(=O)[C@@H](NC(=O)CNC(=O)[C@H](CCCNC(=N)N)NC(=O)[C@H](Cc3c[nH]c4ccccc34)NC(=O)[C@H](Cc3ccccc3)NC(=O)[C@@H]3CCCN3C(=O)[C@@H](NC(=O)[C@@H](N)CCSC)[C@@H](C)O)C(C)C)[C@@H](C)CC)C(=O)N[C@@H](CCCNC(=N)N)C(=O)N[C@@H](CC(=O)O)C(=O)N[C@@H](CC(=O)O)C(=O)N[C@@H](CO)C(=O)N[C@@H](CCC(=O)O)C(=O)N2)NC(=O)[C@H](CC(C)C)NC(=O)[C@H](CCCNC(=N)N)NC(=O)[C@H]([C@@H](C)O)NC1=O", "note": "[LEAP2, liver-expressed antimicrobial peptide 2] (H-MTPFWRGVSLRPIGASCRDDSECITRLCRKRRCSLSVAQE-OH; disulfide 17-28, 23-33 (inferred); N-terminus and C-terminus assumed)", "values": [{"measurement": "Glucagon Baseline", "setting": "healthy men; healthy men n = 20, LEAP2 day, before infusion", "value": "6.57 ± 0.76", "unit": "pmol/L"}, {"measurement": "Glucagon AUC", "setting": "healthy men; healthy men n = 20, iv LEAP2 ~25 pmol/kg/min, 0 to 255 min", "value": "2.26 ± 0.20", "unit": "nmol·min/L"}, {"measurement": "Glucagon AUC0–60 min", "setting": "healthy men; healthy men n = 20, iv LEAP2 ~25 pmol/kg/min, fasting period", "value": "0.446 ± 0.044", "unit": "nmol·min/L"}, {"measurement": "Glucagon Peak", "setting": "healthy men; [2]", "value": "13.0 ± 0.94", "unit": "pmol/L"}, {"measurement": "Glucagon Time to peak", "setting": "healthy men; [2]", "value": "116 ± 12.5", "unit": "min"}, {"measurement": "Glucagon AUC60–255 min", "setting": "healthy men; healthy men n = 20, iv LEAP2 ~25 pmol/kg/min, postprandial period", "value": "1.82 ± 0.17", "unit": "nmol·min/L"}, {"measurement": "Glucagon Postprandial baseline", "setting": "healthy men; healthy men n = 20, iv LEAP2 ~25 pmol/kg/min, time = 60 min", "value": "7.35 ± 0.82", "unit": "pmol/L"}, {"measurement": "half-life of LEAP2", "setting": "[1]; healthy men n = 8, iv 10 min at ~101 pmol/kg/min then 110 min at ~25 pmol/kg/min, plasma, radioimmunoassay, one-compartment model (Monolix)", "value": "~9", "unit": "min"}, {"measurement": "endogenous production rate of LEAP2", "setting": "[1]; healthy men n = 8, one-compartment model assuming constant endogenous production", "value": "1.9 ± 0.14", "unit": "nmol/min"}, {"measurement": "Vd", "setting": "[1]; male, human, plasma, healthy men n = 8, iv 10 min at ~101 pmol/kg/min then 110 min at ~25 pmol/kg/min, 150-min wash-out, one-compartment model (Monolix), read-out: volume of distribution of LEAP2", "value": "14 ± 5.3", "unit": "L"}, {"measurement": "clearance", "setting": "[1]; male, human, plasma, healthy men n = 8, iv 10 min at ~101 pmol/kg/min then 110 min at ~25 pmol/kg/min, one-compartment model (Monolix), read-out: metabolic clearance rate of LEAP2", "value": "860 ± 170", "unit": "mL/min"}, {"measurement": "half-life", "setting": "[1]; male, human, healthy men n = 8, iv 10 min at ~101 pmol/kg/min then 110 min at ~25 pmol/kg/min, plasma, radioimmunoassay, one-compartment model (Monolix)", "value": "9.1 ± 2.5", "unit": "min"}, {"measurement": "cumulative food intake after dosing vs vehicle", "setting": "GHSR-null mice", "value": "no effect"}, {"measurement": "plasma glucose after dosing vs vehicle", "setting": "GHSR-null mice", "value": "did not affect plasma glucose"}]}]}
